Test results taken from patent US8895282B2, “Use of a substance for manufacturing of a medicament for treatment of common cold” (Tanomed AB, priority 2008, dated 2014).
Several values for one entry are separate records, joined by “and”; a condition that tells them apart may be missing. Equal entries are not always repeated. Where two headings read alike, the source gives them in different places.

Tests used:
WI 38 cells [1] = test system: WI 38 cells
Protocol: (§1) Virus concentration=dil 2. Incubation during 30 min in heater keeping 37° C. After 30 min the effect of the hydrogen peroxide is aborted with the addition of 0.1 ml catalase solution into the vial (=1 kU/ml). • 0.7 ml 5% glucose solution+0.1 ml dil 1 of RV7 (=a7) or RV8 (=a8)+0.1 ml of the hydrogen peroxide solution (=final concentration in the vial=[…]). Incubation and abortion of the hydrogen peroxide effect similar as in a).
(§2) After the addition of catalase, samples are transferred to a 96-well plate with flat bottom according to table 3.

Rhinovirus 7 [2] = test system: Rhinovirus 7
Protocol: Virus: Rhinovirus 7, purchased from ATCC (VR-1117), was used as a representative for the rhinovirus group. In the assays the dilutions 10^−2 and 10^−3 were used. […] 0.3 ml of each dilution was added into the vials.
(§3) Cell culture: Human lung cell fibroblasts (WI 38, ATCC-CCL-75) was used for cytopathic effect detection. 10-fold serial dilutions had been made from the concentrated viral suspension. […] Then the media was changed to RPMI with 2% of fetal calf serum, which was preserved during the assay. The cells were incubated in CO2enriched air at 37° C. During the experiments a cell culture of 17th-18^thpassage was used.
Catalase: From Sigma-Aldrich™. A solution of 100 000 U/ml was prepared from the original solution of 10^6 U/ml.
H2O2: a 20% solution was diluted in Phosphate buffered saline (PBS) to a 0.5% and a 0.05% solution. 0.1 ml was added to the vials, which means 0.05% or 0.005% in the vials.
A solution of 200 U/ml and 600 U/ml was prepared from the original solution of 6000 U/ml.
In order to evaluate whether the effect of the hydrogen peroxide was a direct effect on the virus itself or a cytoprotective effect, we preincubated the virus with the hydrogen peroxide, before it was transferred to the wells with the cells. The WI 38 cells are also sensitive to hydrogen peroxide, and therefore it was necessary to add catalase before inoculation into the wells. […] This design would also reveal if the inhibitory effect was only a virostatic one, or if it could damage the virions irreversibly.
(§4) In table 1 the content of each of the 10 vials (Eppendorf) is listed. The vials were incubated in a heater keeping a stable temperature of 37° C. 1000 U of catalase was added after 15, 30 and 60 min of incubation. 2×50 μl from each vial was transferred to duplicate cell wells (a 96-well plate).

WI 38 cells [3] = test system: WI 38 cells; remark: listed apart in the source
Protocol: as §3, §4

Rhinovirus 8 = conditions: 50 μl b8: RV8 preincubated 30 min with 0.01% hydrogen peroxide, then catalase
Protocol: as §1
(§5) Altogether 4 vials (Eppendorff): a7, a8, b7 and b8.
as §2

Rhinovirus 7 [4] = conditions: b7: RV7 preincubated 30 min with 0.01% hydrogen peroxide, then catalase
Protocol: as §1, §5, §2

[5] = 0.005% H2O2, RV 7 dil 10^−2, preincubation 15 min
[6] = 0.005% H2O2, RV 7 dil 10^−2, preincubation 30 min
[7] = 0.005% H2O2, RV 7 dil 10^−2, preincubation 60 min
[8] = 0.005% H2O2, RV 7 dil 10^−3, preincubation 15 min
[9] = 0.005% H2O2, RV 7 dil 10^−3, preincubation 30 min
[10] = 0.005% H2O2, RV 7 dil 10^−3, preincubation 60 min
[11] = 0.05% H2O2, RV 7 dil 10^−2, preincubation 15 min
[12] = 0.05% H2O2, RV 7 dil 10^−2, preincubation 30 min
[13] = 0.05% H2O2, RV 7 dil 10^−2, preincubation 60 min
[14] = 0.05% H2O2, RV 7 dil 10^−3, preincubation 15 min
[15] = 0.05% H2O2, RV 7 dil 10^−3, preincubation 30 min
[16] = 0.05% H2O2, RV 7 dil 10^−3, preincubation 60 min

OO [H2O2, hydrogen peroxide]
Effect on WI 38 cells after 2 days (WI 38 cells [1]): Tox
Effect on WI 38 cells after 10 days (WI 38 cells [1]): tox
Inactivation of RV 7 (Rhinovirus 7 [2]; 0.005% (2 mM) hydrogen peroxide, higher concentration of RV 7): not able to inactivate
Day 3 (cytopathic effect of RV 7 on WI 38 cells) (Rhinovirus 7 [2]; [5]): +
Day 5 (cytopathic effect of RV 7 on WI 38 cells) (Rhinovirus 7 [2]; [5]): ++
Day 7 (cytopathic effect of RV 7 on WI 38 cells) (Rhinovirus 7 [2]; [5]): ++
Day 3 (cytopathic effect of RV 7 on WI 38 cells) (Rhinovirus 7 [2]; [6]): +
Day 5 (cytopathic effect of RV 7 on WI 38 cells) (Rhinovirus 7 [2]; [6]): +
Day 7 (cytopathic effect of RV 7 on WI 38 cells) (Rhinovirus 7 [2]; [6]): ++
Day 3 (cytopathic effect of RV 7 on WI 38 cells) (Rhinovirus 7 [2]; [7]): +
Day 5 (cytopathic effect of RV 7 on WI 38 cells) (Rhinovirus 7 [2]; [7]): +
Day 7 (cytopathic effect of RV 7 on WI 38 cells) (Rhinovirus 7 [2]; [7]): +
Day 3 (cytopathic effect of RV 7 on WI 38 cells) (Rhinovirus 7 [2]; [8]): −
Day 5 (cytopathic effect of RV 7 on WI 38 cells) (Rhinovirus 7 [2]; [8]): +
Day 7 (cytopathic effect of RV 7 on WI 38 cells) (Rhinovirus 7 [2]; [8]): +
Day 3 (cytopathic effect of RV 7 on WI 38 cells) (Rhinovirus 7 [2]; [9]): −
Day 5 (cytopathic effect of RV 7 on WI 38 cells) (Rhinovirus 7 [2]; [9]): −
Day 7 (cytopathic effect of RV 7 on WI 38 cells) (Rhinovirus 7 [2]; [9]): −
Day 3 (cytopathic effect of RV 7 on WI 38 cells) (Rhinovirus 7 [2]; [10]): −
Day 5 (cytopathic effect of RV 7 on WI 38 cells) (Rhinovirus 7 [2]; [10]): −
Day 7 (cytopathic effect of RV 7 on WI 38 cells) (Rhinovirus 7 [2]; [10]): −
Inactivation of RV 7 (Rhinovirus 7 [2]; 0.005% hydrogen peroxide, 60 min of incubation, RV 7 10^−3 dilution): able to inactivate
Inactivation of RV 7 (Rhinovirus 7 [2]; 0.05% (20 mM) H2O2, all RV 7 concentrations, already after 15 min of incubation): able to inactivate
Day 3 (cytopathic effect of RV 7 on WI 38 cells) (Rhinovirus 7 [2]; [11]): −
Day 5 (cytopathic effect of RV 7 on WI 38 cells) (Rhinovirus 7 [2]; [11]): −
Day 7 (cytopathic effect of RV 7 on WI 38 cells) (Rhinovirus 7 [2]; [11]): −
Day 3 (cytopathic effect of RV 7 on WI 38 cells) (Rhinovirus 7 [2]; [12]): −
Day 5 (cytopathic effect of RV 7 on WI 38 cells) (Rhinovirus 7 [2]; [12]): −
Day 7 (cytopathic effect of RV 7 on WI 38 cells) (Rhinovirus 7 [2]; [12]): −
Day 3 (cytopathic effect of RV 7 on WI 38 cells) (Rhinovirus 7 [2]; [13]): −
Day 5 (cytopathic effect of RV 7 on WI 38 cells) (Rhinovirus 7 [2]; [13]): −
Day 7 (cytopathic effect of RV 7 on WI 38 cells) (Rhinovirus 7 [2]; [13]): −
Day 3 (cytopathic effect of RV 7 on WI 38 cells) (Rhinovirus 7 [2]; [14]): −
Day 5 (cytopathic effect of RV 7 on WI 38 cells) (Rhinovirus 7 [2]; [14]): −
Day 7 (cytopathic effect of RV 7 on WI 38 cells) (Rhinovirus 7 [2]; [14]): −
Day 3 (cytopathic effect of RV 7 on WI 38 cells) (Rhinovirus 7 [2]; [15]): −
Day 5 (cytopathic effect of RV 7 on WI 38 cells) (Rhinovirus 7 [2]; [15]): −
Day 7 (cytopathic effect of RV 7 on WI 38 cells) (Rhinovirus 7 [2]; [15]): −
Day 3 (cytopathic effect of RV 7 on WI 38 cells) (Rhinovirus 7 [2]; [16]): −
Day 5 (cytopathic effect of RV 7 on WI 38 cells) (Rhinovirus 7 [2]; [16]): −
Day 7 (cytopathic effect of RV 7 on WI 38 cells) (Rhinovirus 7 [2]; [16]): −
Reversibility of the inactivation of RV 7 (Rhinovirus 7 [2]; Glucose Oxidase or 0.05% hydrogen peroxide solution, 7 days of incubation, no sign of recovery): irreversible
Day 3 (toxic effect on WI 38 cells, control) (WI 38 cells [3]): TOX
Day 5 (toxic effect on WI 38 cells, control) (WI 38 cells [3]): TOX
Day 7 (toxic effect on WI 38 cells, control) (WI 38 cells [3]): TOX
Toxic effect on WI 38 cells (WI 38 cells [3]): severe toxic effect
Infection of WI 38 cells after 2 days of inoculation (Rhinovirus 8): 1+
Infection of WI 38 cells after 10 days of inoculation (Rhinovirus 8): 3+
Infection of WI 38 cells after 2 days of inoculation (Rhinovirus 7 [4]): 1+
Infection of WI 38 cells after 10 days of inoculation (Rhinovirus 7 [4]): 1+ and 2+

B1: Catalase: specific enzyme catalyzing the conversion of H2O2 into O2 and H2O; purified from human erythrocytes (protein, UniProt P04040 2-527, looked up)
Catalase: ADSRDPASDQMQHWKEQRAAQKADVLTTGAGNPVGDKLNVITVGPRGPLLVQDVVFTDEMAHFDRERIPERVVHAKGAGAFGYFEVTHDITKYSKAKVFEHIGKKTPIAVRFSTVAGESGSADTVRDPRGFAVKFYTEDGNWDLVGNNTPIFFIRDPILFPSFIHSQKRNPQTHLKDPDMVWDFWSLRPESLHQVSFLFSDRGIPDGHRHMNGYGSHTFKLVNANGEAVYCKFHYKTDQGIKNLSVEDAARLSQEDPDYGIRDLFNAIATGKYPSWTFYIQVMTFNQAETFPFNPFDLTKVWPHKDYPLIPVGKLVLNRNPVNYFAEVEQIAFDPSNMPPGIEASPDKMLQGRLFAYPDTHRHRLGPNYLHIPVNCPYRARVANYQRDGPMCMQDNQGGAPNYYPNSFGAPEQQPSALEHSIQYSGEVRRFNTANDDNVTQVRAFYVNVLNEEQRKRLCENIAGHLKDAQIFIQKKAVKNFTEVHPDYGSHIQALLDKYNAEKPKNAIHTFVQSGSHLAAREKANL
Effect on WI 38 cells after 2 days (WI 38 cells [1]): 0
Effect on WI 38 cells after 10 days (WI 38 cells [1]): 0
